Counter-ions that a name gives are not always drawn.
Assays:
[1] = system: serotonin release in the cortex; conditions: after systemic administration; cited from earlier work
[2] = system: serotonin release in the dorsal raphe nucleus; conditions: rat; together with paroxetine; cited from earlier work

| Structure (SMILES) | melting point | serotonin release in the cortex [1] | effect of paroxetine on serotonin release in the dorsal raphe nucleus [2] |
| --- | --- | --- | --- |
| CC1(C)c2ccccc2S(=O)(=O)N1CCN1CCN(c2ccccc2C#N)CC1 (as salt: hydrochloride) | 228 °C |  |  |
| CC1(C)c2ccccc2S(=O)(=O)N1CCN1CCN(c2cccc3ccccc23)CC1 (as salt: hydrochloride) | 282 °C |  |  |
| CC1(C)c2ccccc2S(=O)(=O)N1CCN1CCN(c2ncnc3ccccc23)CC1 (as salt: hydrochloride) | 178 °C |  |  |
| CC1(C)c2ccccc2S(=O)(=O)N1CCCN1CCN(c2ncccn2)CC1 (as salt: hydrochloride) | 263 °C |  |  |
| CC1(C)c2ccc(-n3cccc3)cc2S(=O)(=O)N1CCCN1CCN(c2cccc3ccccc23)CC1 (as salt: hydrochloride) | 269 °C |  |  |
| Cc1cccc(N2CCN(CCN3C(C)(C)c4ccccc4S3(=O)=O)CC2)c1C (as salt: hydrochloride) | 291 °C |  |  |
| CC1(C)c2ccc([N+](=O)[O-])cc2S(=O)(=O)N1CCCN1CCN(c2cccc3ccccc23)CC1 | 203 °C |  |  |
| CC1(C)c2ccccc2S(=O)(=O)N1CCN1CCN(c2cccc3c2CCC3)CC1 (as salt: hydrochloride) | 271 °C |  |  |
| CC1(C)c2ccccc2S(=O)(=O)N1CCCN1CCN(c2ccc3ccccc3n2)CC1 | 63 °C |  |  |
| CC1(C)c2ccccc2S(=O)(=O)N1CCCN1CCN(c2nc(-c3ccccc3)nc3ccccc23)CC1 (as salt: hydrochloride) | 269 °C |  |  |
| COc1ccccc1N1CCN(CC(O)CN2C(C)(C)c3ccccc3S2(=O)=O)CC1 (stereo not drawn) | 160 °C |  |  |
| Cc1ccc(C)c(N2CCN(CCCN3C(C)(C)c4ccccc4S3(=O)=O)CC2)c1 (as salt: hydrochloride) | 218 °C |  |  |
| COc1ccc(N2CCN(CCN3C(C)(C)c4ccccc4S3(=O)=O)CC2)cc1 (as salt: hydrochloride) | 207 °C |  |  |
| C=C(CN1CCN(c2cccc3ccccc23)CC1)CN1C(C)(C)c2ccccc2S1(=O)=O | 193 °C |  |  |
| CCC1(CC)c2ccccc2S(=O)(=O)N1CCCN1CCN(c2cccc3ccccc23)CC1 | 179 °C |  |  |
| CC1(C)c2ccccc2S(=O)(=O)N1CCCN1CCN(c2ccc(Cl)c3ccccc23)CC1 | 151 °C |  |  |
| COc1ccc(NC(=O)c2ccc(-c3ccc(-c4noc(C)n4)cc3C)cc2)cc1N1CCN(C)CC1 [GR 127 935] |  | reduces serotonin release | potentiated |
